Reference: ChEMBL document CHEMBL5365512, “Hetero-tricyclic Compounds as KRAS Inhibitors for Treating Cancer” (ACS Med Chem Lett, 2023)
pIC50: −log10 of the molar value.

How the values were obtained:
GTPase KRas [1] = biological target: T1, GTPase KRas (Homo sapiens, UniProt P01116, G12D); test: Inhibition of KRAS G12D mutant (unknown origin) assessed as inhibition of SOS1 mediated nucleotide exchange of bodipy-GDP for GppNHp incubated for 4 hrs by fluorescence based analysis
GTPase KRas [2] = biological target: GTPase KRas (Homo sapiens, UniProt P01116, G12V); test: Inhibition of KRAS G12V mutant (unknown origin) assessed as inhibition of SOS1 mediated nucleotide exchange of bodipy-GDP for GppNHp incubated for 3 hrs by fluorescence based analysis
GTPase KRas [3] = biological target: T1, GTPase KRas; test: Inhibition of KRAS G12D mutant in human HPAF-II cells assessed as reduction in ERK phosphorylation by Western blot analysis; format: cell-based

GTPase KRas (Homo sapiens, UniProt P01116, G12V), sequence (P01116 whole entry G12V): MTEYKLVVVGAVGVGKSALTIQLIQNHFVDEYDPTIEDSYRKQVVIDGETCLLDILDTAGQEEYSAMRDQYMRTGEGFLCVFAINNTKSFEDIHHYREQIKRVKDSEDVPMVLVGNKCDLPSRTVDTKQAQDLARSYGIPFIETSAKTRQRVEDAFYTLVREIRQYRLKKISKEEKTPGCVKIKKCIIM
T1 sequence (P01116 whole entry G12D): as the sequence (P01116 whole entry G12V) above, with V12D counted along it

pIC50 (GTPase KRas [1])	pIC50 (GTPase KRas [2])	pIC50 (GTPase KRas [3])	Compound
≥ 7.00	≥ 7.00	≥ 7.00	C[C@H](Oc1nc2c(F)c(-c3cc(O)cc4ccc(F)cc34)c(CCC#N)cc2c2c1NC(=O)CN2C1C2CNC1C2)[C@@H]1CCCN1C (some centres not stated)
≥ 7.00	≥ 7.00	≥ 7.00	Cc1cc2c(nc(O[C@@H](C)[C@H]3CCCN3C)c3c(=O)ccn([C@@H]4[C@@H]5CN[C@H]4C5)c32)c(F)c1-c1cccc2c1C(C#N)CCC2 (some centres not stated)
≥ 7.00	≥ 7.00	≥ 7.00	C[C@H](Oc1nc2c(F)c(-c3c[nH]c4ccccc34)c(CCC#N)cc2c2c1NC(=O)CN2C1C2CNC1C2)[C@@H]1CCCN1C (some centres not stated)
≥ 7.00	≥ 7.00		C[C@H](Oc1nc2c(F)c(-c3cccc(Cl)c3Cl)c(CCC#N)cc2c2c1c(=O)c(N1CCCC1=O)cn2[C@@H]1[C@@H]2CN[C@H]1C2)[C@H]1CCCN1C
≥ 7.00	≥ 7.00	≥ 7.00	C[C@H](Oc1nc2c(F)c(-c3cccc4ccc(F)cc34)c(CCC#N)cc2c2c1NC(=O)CN2C1C2CNC1C2)[C@@H]1CCCN1C (some centres not stated)
≥ 7.00	≥ 7.00	≥ 7.00	C[C@@H](Oc1nc2c(F)c(-c3cc(O)cc4ccccc34)c(CCC#N)cc2c2c1CCCN2C1C2CNC1C2)[C@H]1CCCN1C (some centres not stated)
